# Measurements: patent publication US20230140838A9, “NOVEL ACTIVITY-BASED PROBES FOR NEUTROPHIL ELASTASE AND THEIR USE” (Takeda Pharmaceutical Company Limited, priority 2018, published 2023)
# Tests used:
# [1] = tested on: NE
# Protocol: PK105b or Cy5-V-DPP (0, 0.1, 0.5 or 1 μM) was added from a 100×DMSO stock, and reaction was left to occur at 37° C. for 30 minutes. Proteins were solubilized in 4× sample buffer (40% glycerol, 200 mM Tris-Cl [pH 6.8], 8% SDS, 0.04% bromophenol blue, 5% beta-mercaptoethanol), boiled for five minutes and resolved on a 15% SDS-PAGE gel. Probe labeling was detected by scanning the gel for Cy5 fluorescence on a Typhoon 5 flatbed laser scanner (GE Healthcare).
# Bone marrow was obtained by flushing tibias and femurs from healthy C57BL/6J mice with PBS. Cells were washed and resuspended in PBS prior to sonication on ice. […] Total protein (60 μg, as measured by BCA assay, Pierce) was aliquoted in a total volume of 20 μl PBS, and probe labeling and SDS-PAGE was carried out as above.
# Fluorescent Gels were Transferred to Nitrocellulose Membranes and Blotted Using the Turbo Blot system (BioRad). […] Binding was detected by scanning with the IRLong filter on a Typhoon 5 flatbed laser scanner (GE Healthcare).
# PK105b-labeled lysates (boiled in sample buffer for five minutes) were divided into input and immunoprecipitation (IP) samples (100 μg each). […] Supernatants were then analyzed, alongside the input sample, by fluorescent SDS-PAGE as above. […]
# [2] = target: T1, NE (Mus musculus, UniProt Q3UP87); format: binding
# T1 sequence (Q3UP87 29-247 limits assumed): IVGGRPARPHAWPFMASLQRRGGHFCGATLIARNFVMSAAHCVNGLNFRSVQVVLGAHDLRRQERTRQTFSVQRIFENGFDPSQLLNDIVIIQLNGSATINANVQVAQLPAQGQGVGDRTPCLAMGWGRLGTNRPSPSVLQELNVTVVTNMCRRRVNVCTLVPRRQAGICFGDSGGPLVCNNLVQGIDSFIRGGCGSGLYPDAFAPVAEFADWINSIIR
# [3] = target: T2, neutrophil elastase (NE) (Homo sapiens, UniProt P08246); experiment: Recombinant protease labeling / fluorescent SDS-PAGE, neutrophil elastase; format: binding; conditions: 0.1-1 μM probe
# T2 construct: purchased Elastin Products Company
# T2 sequence (P08246 30-267): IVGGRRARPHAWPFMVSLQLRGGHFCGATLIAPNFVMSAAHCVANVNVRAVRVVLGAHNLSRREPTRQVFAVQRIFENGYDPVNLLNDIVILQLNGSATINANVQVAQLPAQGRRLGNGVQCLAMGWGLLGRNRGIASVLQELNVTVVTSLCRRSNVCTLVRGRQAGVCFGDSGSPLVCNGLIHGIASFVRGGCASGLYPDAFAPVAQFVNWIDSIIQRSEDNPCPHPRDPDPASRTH
# [4] = target: T1, NE; format: binding; remark: listed apart in the source
# [5] = tested on: serine proteases in lysates prepared from mouse pancreas; experiment: Ex vivo labeling of mouse pancreas lysates, in-gel fluorescence and immunoprecipitation; format: binding
# Protocol: (§1) Tubes were rocked overnight at 4° C.
# [6] = tested on: NE; experiment: Ex vivo labeling of human colon mucosal biopsy lysates (ulcerative colitis vs healthy); format: binding
# Protocol: as §1
# Human mucosal biopsies were obtained from individuals during colonoscopy procedures at Hotel Dieu Hospital in Kingston, Ontario, Canada (Table 1). Patients were well-characterized individuals with active ulcerative colitis (UC) or healthy individuals undergoing routine colonoscopy for cancer screening. For UC patients, biopsies were obtained from sites of active inflammation. Written and verbal consent was obtained prior to enrolment and all protocols were approved by the Queen's University Human Ethics Committee. Fresh biopsies were washed in PBS and then snap frozen for protease analysis as above.
smiles,measurement,setting,value
CCC(NC(=O)[C@@H]1CC2CCCCC2N1C(=O)[C@H](CCS(C)(=O)=O)NC(=O)[C@H](CCCCOCc1ccccc1)NC(=O)CCCCCN1/C(=C/C=C/C=C/C2=[N+](CC)c3ccc(S(=O)(=O)[O-])cc3C2(C)C)C(C)(C)c2cc(S(=O)(=O)O)ccc21)P(=O)(Oc1ccccc1)Oc1ccccc1 (stereo partly shown) [PK105b],labeling in tumor tissues versus normal tongue tissues,"[1]; HSC-3 xenograft, two weeks","clear labeling of a 25-KDa species in tumor tissues, but not normal tongue tissues"
same,labeling of other high-molecular weight species in tumor/tongue lysates,[1]; unidentified species,abundantly labeled
same,identity of the major 25-KDa species by immunoblotting and immunoprecipitation,[2],confirmed to be NE
same,labeling in infected lung tissue lysates compared with control lungs,[2],significantly increased
same,potency of NE labeling compared between probes,[3],more potent than Cy5-V-DPP
same,ability to detect NE activity in tissue lysates compared between probes,[4],clearly superior to Cy5-V-DPP
same,binding to other species (off-target bands),[4],binding to several species in the 50-75-KDa range
same,identity of the labeled band by immunoprecipitation with NE-specific antibody,[4],confirmed to be NE
same,labeling of the 25-KDa band in healthy distal colons and proximal regions of healthy and inflamed colons,[4],virtually absent
same,labeling of the 25-KDa species in distal colon lysates of TNBS-treated mice,[4],clear labeling of a single protein at 25-KDa
same,species of the 25-KDa NE doublet labeled by the probe,[4],Only the lower species
same,labeling of 25-KDa proteins in mouse pancreas lysates (in-gel fluorescence),"[5]; 0.1, 0.5 and 1 µM",strongly labeled
same,targets of the probe identified by immunoprecipitation,"[5]; labeled mouse pancreas lysates, antibodies to NE, PE, Try3","combination of NE, pancreatic elastase (PE), and trypsin 3"
same,identity of labeled bands by immunoprecipitation with NE-specific antibody,[6]; UC biopsy lysates,confirmed to be NE
same,labeling in active ulcerative colitis biopsies compared with healthy individuals,"[6]; human colon mucosal biopsies, UC n=9, normal n=5",significant increase in labeling
same,number of species labeled in human mucosal lysates,[6]; in-gel fluorescence,three species were labeled
